Test system: human primary IBM cells
Test: Aggresome detection (proteostat) in primary myoblasts from IBM patients
Assay type: cell-based
Conditions: 4 μM for 24 h
Protocol: Figure 4 1-deoxy-SL species accumulate in muscle and brain tissues during aging and contribute to cellular protein aggregation. (A,B) Heat map representing the abundance of sphingolipids in (A) gastrocnemius muscle and (B) brain with and without treatment with ALT-007 in mice (ALT-007 at 1 mg/kg; DMSO at equivalent volume for 20 weeks). N = 8 per group. Data are shown as log2 fold change. Adjusted P values are indicated as follows: *adjusted P < 0.05; **adjusted P < 0.01; ***adjusted P < 0.001. (C,D) Representative images and quantification of protein aggregates upon 1-deoxy-SA (C) and P053 treatment (D) in human primary IBM cells; both were administered at 4 μM for 24 h. N = 8 per group. (E) Analysis of 1-Deoxy-Spa and 1-DeoxyCer 24:1 levels in myoblasts from healthy and IBM patients. N = 3 per group. (C–E) Quantitative data are expressed as median with IQR and compared using the Mann–Whitney U test. All tests were 2 sided. *P < 0.05, **P < 0.01, ***P < 0.001.
Primary myoblasts from IBM patients and healthy aged matched donors were provided by Hospices Civils de Lyon. Cells were grown in DMEM/F-10 supplemented with 12% FBS (Gibco) and penicillin–streptomycin (1×, Gibco). Cells were cultured on sterilized coverslips in six-well plates (Greiner BioOne, CELLSTAR, 657160). […]

## CCCCCCCCCCCCCCC[C@@H](O)[C@H](C)N [1-deoxy-SA, 1-deoxy-sphinganine]
  cellular protein aggregates (proteostat signal): significantly exacerbated the accumulation of cellular protein aggregates

— paper PMC11729425 (ACS Pharmacology & Translational Science, 2024)
